What was measured:
Assay in all cases: relative viability (nuclei count vs DMSO), 5 days (fraction); higher = more cells survive
[1] = compound: CCn1c(-c2nonc2N)nc2c(C#CC(C)(C)O)ncc(OC[C@H]3CCCNC3)c21 + N=C(N)NC(=N)NCCc1ccccc1 [Phenformin] (partner 250 µM)
Summary of the method: (§1)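 After 5 days of treatment, lung cancer cells in 1536-well plates were fixed and stained in a single step (final 0.05% Triton X-100, 1% formaldehyde, 1 ug/ml Hoechst) and their nuclei counted on 4× images. Treatment had been applied by pin tool the day after seeding as one drug alone or as a fixed anchor-drug dose with five library-drug doses (not always all listed) in √10 steps. Relative viability is the nuclei count of treated wells divided by that of vehicle wells, and values are medians of duplicate plates.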

[2] = compound: CCn1c(-c2nonc2N)nc2c(C#CC(C)(C)O)ncc(OC[C@H]3CCCNC3)c21
Summary of the method: (§2)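 Viability is treated-well nuclei as a fraction of vehicle-well nuclei, reported as the median across plates. Before counting, lung cancer cell lines were kept overnight at 37 °C in 1536-well plates, pinned with five √10-spaced library-drug doses on vehicle-anchored plates, and left 5 days without medium change, then fixed, permeabilised and Hoechst-stained in one step, imaged at 4× and counted by MetaXpress. A plate passed only if control CV was below 25% and at least one doubling occurred.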

BAM7 = compound: CCOC1=CC=CC=C1N=NC2=C(NN(C2=O)C3=NC(=CS3)C4=CC=CC=C4)C [BAM7]
Summary of the method: as §2

BAM7 + Navitoclax = compound: CCOC1=CC=CC=C1N=NC2=C(NN(C2=O)C3=NC(=CS3)C4=CC=CC=C4)C [BAM7] + CC1(C)CCC(c2ccc(Cl)cc2)=C(CN2CCN(c3ccc(C(=O)NS(=O)(=O)c4ccc(N[C@H](CCN5CCOCC5)CSc5ccccc5)c(S(=O)(=O)C(F)(F)F)c4)cc3)CC2)C1 [Navitoclax] (partner 0.5 µM)
Summary of the method: as §1

Cell Line	relative viability ([1]; first compound 0.01 µM)	relative viability ([1]; first compound 0.03162 µM)	relative viability ([1]; first compound 0.1 µM)	relative viability ([1]; first compound 0.3162 µM)	relative viability ([1]; first compound 1 µM)	relative viability ([2]; 0.01 µM)	relative viability ([2]; 0.03162 µM)	relative viability ([2]; 0.1 µM)	relative viability ([2]; 0.3162 µM)	relative viability ([2]; 1 µM)	relative viability (BAM7; 0.5 µM)	relative viability (BAM7; 5 µM)	relative viability (BAM7; 15.81 µM)	relative viability (BAM7; 50 µM)	relative viability (BAM7 + Navitoclax; first compound 0.5 µM)	relative viability (BAM7 + Navitoclax; first compound 5 µM)	relative viability (BAM7 + Navitoclax; first compound 15.81 µM)	relative viability (BAM7 + Navitoclax; first compound 50 µM)
NCI-H522	0.636	0.648	0.629	0.576	0.624	1.07	1.03	0.972	0.826	1.02	0.981	1.07	1.01	1.07	–	–	–	–
HCC-15	0.439	0.502	0.456	0.395	0.404	0.959	1.02	1.04	0.952	0.914	1.01	1.01	0.97	0.927	0.751	0.768	0.683	0.707
A-427	0.315	0.387	0.263	0.339	0.326	0.994	1.06	0.918	0.965	1.08	1.05	1.08	1	1.09	0.991	0.921	0.974	0.971
NCI-H2228	0.363	0.36	0.298	0.277	0.204	0.938	1.1	1.04	0.848	0.809	1.06	0.968	0.914	1.2	0.985	1.4	0.818	1.27
NCI-H1734	0.365	0.425	0.335	0.323	0.267	0.95	0.978	0.893	0.932	0.86	1.03	1.07	1	1.1	0.877	0.948	0.861	0.771
PC-14	0.448	0.519	0.597	0.531	0.609	0.937	1	1.11	0.954	1.03	1.04	1.06	1	1.01	1.05	1.09	1	0.938
NCI-H1915	0.384	0.385	0.36	0.357	0.36	0.965	1.03	0.917	0.983	0.996	1.01	1.13	0.989	0.991	0.756	0.776	0.803	0.807
NCI-H1666	0.614	0.539	0.539	0.987	0.534	1.02	0.956	1.01	0.949	0.954	1.03	1	1.09	1.05	0.938	1.11	0.912	0.858
HCC-366	0.573	0.606	0.637	0.62	0.617	0.993	1.05	0.805	0.998	0.99	1.04	1.04	1.03	1.02	1.11	0.981	0.964	0.957
SK-MES-1	0.654	0.642	0.66	0.617	0.673	0.998	1.01	1.02	0.944	0.993	1.04	1.08	0.973	1.03	1.37	1.36	1.23	1.23
SW 1573	0.344	0.274	0.24	0.209	0.194	0.98	0.932	0.871	0.677	0.777	1.03	1.18	0.969	1.08	0.89	1.02	1.24	1.06
NCI-H661	0.277	0.259	0.265	0.145	0.239	1.01	1.03	0.976	1.01	0.972	0.984	1.03	0.965	1.03	–	–	–	–
PC-3 [JPC-3]	0.504	0.451	0.469	0.463	0.474	1.02	1.02	1.05	0.996	1.08	0.967	1.02	0.974	0.917	0.688	0.815	0.755	0.626
NCI-H1623	0.604	0.526	0.6	0.56	0.473	1.07	1.02	0.963	0.967	1.09	1.06	0.974	0.768	0.896	–	–	–	–
Calu-6	–	–	–	–	–	0.995	1.02	1.02	0.982	1.03	1.07	1.06	0.989	0.995	0.911	0.919	0.906	0.824
